“And” between values parts separate entries of the source, which are not always exact repeats. Equal entries are not always repeated.
Key:
[1] = tested on: MAC (101, type 1); experiment: MAC infected beige mice, experiment 2 (three times/week for 21 days), tissue cfu; assay type: in vivo, Beige mice (C57B1/6bg^j /bg^j)
Description: (§1) The testing of liposome encapsulated amikacin for the treatment of MAC was performed using a murine model. Beige mice (C57B1/6bg^j /bg^j) were infected with MAC (101, type 1). The mice were infected by injection of 1×10^7 Colony Forming Units (cfu) in the mouse tail vein (i.v.). Three experiments were performed. In the first experiment, 40, 80 and 120 milligrams of amikacin (liposomal and free) per kilogram of mouse body-weight was given i.v. daily for 5 days, beginning 7 days after infection. The animals were sacrificed 5 days after treatment was completed and the liver, lung and spleen tissue were plated. Quantitation of organisms in liver, spleen and lung tissue was performed. The cfu were determined by growth on Middlebrook 7h11 agar plates. Untreated and empty liposomes were used as controls.
Another experiment was carried out as above (also in two parts) except that the drug therapy was started 5 days after infection. The drug was given i.v. three times/week for 21 days. The mice were sacrificed 1-2 days after the treatment stopped. […] The lung tissues were not tested. Similar controls were used as above. The liposomes were prepared as described in Example 1. The average size of the liposomes was 66.5 nm or 79.6 nm (mean diameter). The concentration of the amikacin was either 15.98 mg/ml or 6.74 mg/ml. The total lipid was measure only the second part of the experiment and it was 27.0 mg/ml (drug to lipid ratio: 1:4.167).

[2] = tested on: MAC (101, type 1); experiment: MAC infected beige mice, experiment 3 (higher doses), tissue cfu; assay type: in vivo, Beige mice (C57B1/6bg^j /bg^j); details: 120 mg/kg i.v. three times/week for 21 days
Description: as §1
Another experiment was carried out as above (also in two parts) except that the drug therapy was started 5 days after infection. The drug was given i.v. three times/week for 21 days. The mice were sacrificed 1-2 days after the treatment stopped. During the treatment period, a group of mice received 40 mg/Kg, 80 mg/kg, and 150 mg/kg of free amikacin and another group received 40 mg/kg, 80 mg/kg, and 160 mg/kg of liposomal amikacin. The lung tissues were not tested. Similar controls were used as above. The liposomes were prepared as described in Example 1. The average size of the liposomes was 66.5 nm or 79.6 nm (mean diameter). The concentration of the amikacin was either 15.98 mg/ml or 6.74 mg/ml. The total lipid was measure only the second part of the experiment and it was 27.0 mg/ml (drug to lipid ratio: 1:4.167).
A third experiment was carried out as in the second experiment except that the mice treated with the liposomal amikacin received 120 mg/kg, 240 mg/kg and 320 mg/kg doses and the mice treated with the free amikacin received only 120 mg/kg doses. The liposomes were prepared as in Example 2 where the average size of the liposomes were 81.8 nm (median diameter). The amikacin concentration was 32.02 mg/ml and the total lipid concentration was 91.5 mg/ml (drug to lipid ratio: 1:2.941).

[3] = 150 mg/kg; known in the art; cited from earlier work
[4] = tested on: Mycobacterium tuberculosis; details: background statement; cited from earlier work
[5] = tested on: Pseudomonas aeruginosa; experiment: Efficacy and toxicity in Pseudomonas infected mice (mortality); assay type: in vivo, CF-1 mice; details: two doses
Description: The efficacy and toxicity of liposomal amikacin in Pseudomonas infected mice was tested. CF-1 mice were used (females, 6-8 weeks old). The mice were obtained from Jackson Labs. A clinical isolate of Pseudomonas aeruginosa was obtained on a Mueller Hinton/MacConkey blood agar plate. The organisms were transferred to a Mueller Hinton plate and grown for 24 hours. Colonies were transferred to saline and grown for 48 hours. The samples were frozen in saline containing 15% fetal calf serum at 1×10^8 organisms/ml (MacFarland Standard). The colonies were stored at -70° C. The colonies were thawed and grown in a Mueller Hinton plate for 24 hours. The bacteria were adjusted to 8×10^6 organisms/ml in saline containing talc (62.5 mg/ml) and 1 ml was injected intraperitoneal. A culture of inoculum on MH agar for 24 hours determined that approximately 7×10^6 cfu were delivered per mouse. Liposomal amikacin and empty liposomes were prepared as set out in Example 2. […] The lipid concentration was 95.31 mg/ml and the amikacin concentration was 23.54 mg/ml (0.25 drug/lipid ratio). The pH of the solution containing the formulation was 7.31. […] The concentration of the free amikacin solution was 23.54 mg/ml. The pH of the solution containing the liposomes was 7.33.
Mice were treated with 40 mg/kg (drug per body-weight), 80 mg/kg, 120 mg/kg and 240 mg/kg of liposomal amikacin. Mice were also treated with 40 mg/kg, 80 mg/kg, and 120 mg/kg of free amikacin. The drugs were administered intravenously in the caudal vein. Two doses were given; one at four hours after infection and one at twenty-four hours after infection.

[6] = assay type: in vivo, mouse (C57B1/6); details: 100 mg/kg i.v.; 6 hours
Description: Amidacin content was measured in mouse (C57B1/6, females 2-3 months old) plasma after injection (i.v.) of free amikacin or liposomal amikacin (100 mg/kg). Liposomal amikacin was prepared as described in Example 2. Blood samples were obtained at various time intervals. The samples were collected by removing 100 microliters of blood, retroorbitally, from nonanesthetized mice. The samples were collected in heparinized capillary pipets which were plugged with modeling clay. The samples were centrifuged at 3250 rpm (20 cm rotor) for 10 minutes. The samples were analyzed using a radioimmunoassay (Diagnostic Products). The liposomal amikacin formulation contained liposomes with an average size of 43.6 nm (median diameter). The amikacin concentration was 10.09 mg/ml and the total lipid concentration was 56.8 mg/ml (drug to lipid ratio 1:5.556).

[7] = tested on: MAC (101, type 1); experiment: MAC infected beige mice, experiment 1 (daily for 5 days), tissue cfu; assay type: in vivo, Beige mice (C57B1/6bg^j /bg^j)
Description: as §1
The liposomes were prepared as in Example 1. This experiment was performed in two identical parts. The liposomes in the first part were of an average size of 49.8 nm and the average size of the liposomes in the second part were 73.7 nm (mean diameter). The amikacin concentration was either 15.0 mg/ml or 13.21 mg/ml and the total lipid concentration was either 121 mg/ml or 55.7 mg/ml respectively (drug to lipid ratios: 0.123, 0.24). Free drug for all experiments was prepared in the same buffer that the liposomal formulations were contained in.

[8] = tested on: M. tuberculosis drug susceptible strain H37RV; experiment: Intracellular activity against drug susceptible M. tuberculosis (H37RV) in human monocyte derived macrophages; assay type: cell-based; details: for CFU (1 × 10^3): duplicate values
[9] = 40 mg/kg i.v. three times/week for 21 days
[10] = 80 mg/kg i.v. three times/week for 21 days
[11] = 120 mg/kg i.v. three times/week for 21 days
[12] = 120 mg/kg i.v. daily for 5 days

Question: Which results are given for `NCC[C@H](O)C(=O)N[C@@H]1C[C@H](N)[C@@H](O[C@H]2O[C@H](CN)[C@@H](O)[C@H](O)[C@H]2O)[C@H](O)[C@H]1O[C@H]1O[C@H](CO)[C@@H](O)[C@H](N)[C@H]1O` [amikacin]?
Answer: Liver cfu/g [1, 9]: 1.09 × 10^8 cfu/g; Liver log cfu [1, 9]: 8.04 log cfu; Spleen cfu/g [1, 9]: 5.76 × 10^8 cfu/g; Spleen log cfu [1, 9]: 8.76 log cfu; Liver cfu/g [1, 10]: 3.67 × 10^7 cfu/g; Liver log cfu [1, 10]: 7.56 log cfu; Spleen cfu/g [1, 10]: 2.02 × 10^8 cfu/g; Spleen log cfu [1, 10]: 8.31 log cfu; Liver cfu/g [1, 11]: 3.15 × 10^7 cfu/g; Liver log cfu [1, 11]: 7.50 log cfu; Spleen cfu/g [1, 11]: 1.48 × 10^8 cfu/g; Spleen log cfu [1, 11]: 8.17 log cfu; Liver cfu/g [2]: 6.10 × 10^7 cfu/g; Liver log cfu/g [2]: 7.78 log cfu/g; Spleen cfu/g [2]: 2.13 × 10^8 cfu/g; Spleen log cfu/g [2]: 8.33 log cfu/g; lethality in mice [3]: will kill many of the mice injected; effectiveness against Mycobacterium tuberculosis [4]: effective; Mortality % ([5]; 40 mg/kg i.v.): 25%; Mortality ([5]; 40 mg/kg i.v., 24 hours post infection): 1/4; Mortality ([5]; 40 mg/kg i.v., 30 hours post infection): 1/4; Mortality ([5]; 40 mg/kg i.v., 48 hours post infection): 1/4; Mortality ([5]; 40 mg/kg i.v., 72 hours post infection): 1/4; Mortality % ([5]; 80 mg/kg i.v.): 0%; Mortality ([5]; 80 mg/kg i.v., 24 hours post infection): 0/6; Mortality ([5]; 80 mg/kg i.v., 30 hours post infection): 0/6; Mortality ([5]; 80 mg/kg i.v., 48 hours post infection): 0/6; Mortality ([5]; 80 mg/kg i.v., 72 hours post infection): 0/6; Mortality % ([5]; 120 mg/kg i.v.): 0%; Mortality ([5]; 120 mg/kg i.v., 24 hours post infection): 0/6; Mortality ([5]; 120 mg/kg i.v., 30 hours post infection): 0/6; Mortality ([5]; 120 mg/kg i.v., 48 hours post infection): 0/6; Mortality ([5]; 120 mg/kg i.v., 72 hours post infection): 0/6; Average Concentration (plasma amikacin) [6]: none detected; Liver cfu/g ([7]; 40 mg/kg i.v. daily for 5 days): 1.41 × 10^8 cfu/g; Liver log cfu/g ([7]; 40 mg/kg i.v. daily for 5 days): 8.15 log cfu/g; Spleen cfu/g ([7]; 40 mg/kg i.v. daily for 5 days): 4.08 × 10^8 cfu/g; Spleen log cfu/g ([7]; 40 mg/kg i.v. daily for 5 days): 8.61 log cfu/g; lung cfu/gram ([7]; 40 mg/kg i.v. daily for 5 days): 1.44×10^6 cfu/gram; lung log ([7]; 40 mg/kg i.v. daily for 5 days): 6.16 log; Liver cfu/g ([7]; 80 mg/kg i.v. daily for 5 days): 7.79 × 10^7 cfu/g; Liver log cfu/g ([7]; 80 mg/kg i.v. daily for 5 days): 7.89 log cfu/g; Spleen cfu/g ([7]; 80 mg/kg i.v. daily for 5 days): 4.82 × 10^8 cfu/g; Spleen log cfu/g ([7]; 80 mg/kg i.v. daily for 5 days): 8.68 log cfu/g; lung cfu/gram ([7]; 80 mg/kg i.v. daily for 5 days): 1.29×10^6 cfu/gram; lung log ([7]; 80 mg/kg i.v. daily for 5 days): 6.11 log; Liver cfu/g [7, 12]: 5.65 × 10^7 cfu/g; Liver log cfu/g [7, 12]: 7.75 log cfu/g; Spleen cfu/g [7, 12]: 3.46 × 10^8 cfu/g; Spleen log cfu/g [7, 12]: 8.54 log cfu/g; lung cfu/gram [7, 12]: 9.94×10^5 cfu/gram; lung log [7, 12]: 6.00 log; inhibition or killing of drug susceptible M. tuberculosis ([8]; 1 μg/ml): inhibited the growth of the bacteria; Avg. log CFU ([8]; 1 μg/ml, day 4): 4.7 log CFU; CFU (1 × 10^3) ([8]; 1 μg/ml, day 4): 50 1 × 10^3 CFU and 60 1 × 10^3 CFU; Avg. log CFU ([8]; 1 μg/ml, day 7): 5.9 log CFU; CFU (1 × 10^3) ([8]; 1 μg/ml, day 7): 900 1 × 10^3 CFU and 800 1 × 10^3 CFU; inhibition or killing of drug susceptible M. tuberculosis ([8]; 2 μg/ml): inhibition; Avg. log CFU ([8]; 2 μg/ml, day 4): 4.3 log CFU; CFU (1 × 10^3) ([8]; 2 μg/ml, day 4): 20 1 × 10^3 CFU; Avg. log CFU ([8]; 2 μg/ml, day 7): 4.7 log CFU; CFU (1 × 10^3) ([8]; 2 μg/ml, day 7): 40 1 × 10^3 CFU and 50 1 × 10^3 CFU; Avg. log CFU ([8]; 4 μg/ml, day 4): 3.7 log CFU; inhibition or killing of drug susceptible M. tuberculosis ([8]; 4 μg/ml, day 4): obtained killing at day 4; CFU (1 × 10^3) ([8]; 4 μg/ml, day 4): 4 1 × 10^3 CFU; Avg. log CFU ([8]; 4 μg/ml, day 7): 3.4 log CFU; CFU (1 × 10^3) ([8]; 4 μg/ml, day 7): 1.5 1 × 10^3 CFU and 3 1 × 10^3 CFU
